In PMC3271436 (Osteoarthritis and Cartilage, 2008):

Legend:
Assay type in all cases: biochemical
[1] = biological target: T1, purified IGFBP-5 protease from human osteoarthritic joint fluid (complement 1s) (Homo sapiens, UniProt P09871); assay: IGFBP-5 cleavage by protease purified from joint fluid
T1 sequence (P09871 16-688): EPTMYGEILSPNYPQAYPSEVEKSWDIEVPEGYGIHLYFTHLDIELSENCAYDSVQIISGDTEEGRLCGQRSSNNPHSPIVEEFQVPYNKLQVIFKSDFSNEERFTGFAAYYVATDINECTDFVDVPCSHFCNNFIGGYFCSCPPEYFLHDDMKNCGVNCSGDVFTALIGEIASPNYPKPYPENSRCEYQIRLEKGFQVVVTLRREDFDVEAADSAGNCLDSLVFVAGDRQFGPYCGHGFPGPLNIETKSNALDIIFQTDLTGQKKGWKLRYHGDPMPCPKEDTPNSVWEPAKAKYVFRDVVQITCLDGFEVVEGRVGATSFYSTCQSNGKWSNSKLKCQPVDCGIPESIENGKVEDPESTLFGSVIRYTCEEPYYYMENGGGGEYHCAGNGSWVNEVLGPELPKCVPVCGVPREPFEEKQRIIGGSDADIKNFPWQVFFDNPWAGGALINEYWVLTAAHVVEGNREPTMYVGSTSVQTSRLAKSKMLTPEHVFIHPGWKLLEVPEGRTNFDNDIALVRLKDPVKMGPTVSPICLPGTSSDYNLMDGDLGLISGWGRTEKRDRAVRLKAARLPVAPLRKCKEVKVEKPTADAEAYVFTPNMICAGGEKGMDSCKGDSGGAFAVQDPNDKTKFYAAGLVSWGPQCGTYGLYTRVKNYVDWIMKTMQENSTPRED

[2] = biological target: T2, IGFBP-5 protease activity in human osteoarthritic joint fluid (Homo sapiens, UniProt P09871)
T2 sequence (P09871 16-688): T1 sequence (P09871 16-688)

[3] = biological target: T3, purified C1s (Calbiochem) (Homo sapiens, UniProt P09871); assay: C1s chromogenic assay with purified commercial C1s, substrate S-2765
T3 sequence (P09871 16-688): T1 sequence (P09871 16-688)

| SMILES | IC50 [1] [nM] | activity in words against the purified joint fluid preparation ([1]; purified joint fluid preparation) | activity in words against IGFBP-5 protease activity in crude joint fluid ([2]; 0.1 to 360 uM) | C1s inhibition in words [3] | IC50 [3] [nM] | Purified Protease IC50 ([1]; protease purified through Con-A step, 118 ng IGFBP-5, 16 h at 37°C) | Human Joint Fluid IC50 ([2]; crude joint fluid, 118 ng IGFBP-5, 16 h at 37°C) |
| --- | --- | --- | --- | --- | --- | --- | --- |
| N=C(N)c1ccc2cc(OC(=O)c3ccc(N=C(N)N)cc3)ccc2c1 [FUT175] | 1000 | most active | most active | potent C1s inhibitor | 70 |  |  |
| c1cnc2c(c1)ccc1cccnc12 [1,10-phenanthroline] |  |  |  |  |  | No inhibition | No Inhibition |
